Experimental findings from ChEMBL document CHEMBL2007661, “Compounds: GSK PKIS; Assays: UNC Frye lab” (2012) are described below.

“And” between values parts separate entries of the source, which are not always exact repeats. Equal values may be shown once.

Common to all, as to conditions: at 1 µM
For test [1], the target named is T1, Inhibitor of nuclear factor kappa-B kinase subunit alpha (Homo sapiens) (UniProt O15111).
T1 sequence (whole entry): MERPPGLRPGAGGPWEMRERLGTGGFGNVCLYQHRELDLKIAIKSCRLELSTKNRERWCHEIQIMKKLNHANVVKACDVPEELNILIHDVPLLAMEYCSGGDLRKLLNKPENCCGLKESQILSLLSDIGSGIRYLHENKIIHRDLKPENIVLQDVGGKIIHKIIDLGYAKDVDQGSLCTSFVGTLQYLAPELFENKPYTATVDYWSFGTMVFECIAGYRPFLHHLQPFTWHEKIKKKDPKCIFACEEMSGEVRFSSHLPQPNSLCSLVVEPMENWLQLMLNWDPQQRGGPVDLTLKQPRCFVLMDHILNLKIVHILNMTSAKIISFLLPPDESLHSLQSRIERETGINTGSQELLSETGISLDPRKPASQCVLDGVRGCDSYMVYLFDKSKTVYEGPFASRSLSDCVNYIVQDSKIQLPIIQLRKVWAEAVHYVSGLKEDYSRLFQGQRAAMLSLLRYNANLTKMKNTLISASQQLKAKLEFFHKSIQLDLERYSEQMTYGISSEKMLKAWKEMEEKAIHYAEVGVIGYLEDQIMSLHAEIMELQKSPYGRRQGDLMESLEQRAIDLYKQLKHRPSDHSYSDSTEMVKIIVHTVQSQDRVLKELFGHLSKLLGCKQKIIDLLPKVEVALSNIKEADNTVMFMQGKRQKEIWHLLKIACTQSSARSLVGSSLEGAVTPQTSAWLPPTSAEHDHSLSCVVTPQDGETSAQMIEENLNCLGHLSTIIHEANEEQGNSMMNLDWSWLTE

Test [2] concerns the target T2, Inhibitor of nuclear factor kappa-B kinase subunit epsilon (Homo sapiens) (UniProt Q14164).
T2 sequence (whole entry): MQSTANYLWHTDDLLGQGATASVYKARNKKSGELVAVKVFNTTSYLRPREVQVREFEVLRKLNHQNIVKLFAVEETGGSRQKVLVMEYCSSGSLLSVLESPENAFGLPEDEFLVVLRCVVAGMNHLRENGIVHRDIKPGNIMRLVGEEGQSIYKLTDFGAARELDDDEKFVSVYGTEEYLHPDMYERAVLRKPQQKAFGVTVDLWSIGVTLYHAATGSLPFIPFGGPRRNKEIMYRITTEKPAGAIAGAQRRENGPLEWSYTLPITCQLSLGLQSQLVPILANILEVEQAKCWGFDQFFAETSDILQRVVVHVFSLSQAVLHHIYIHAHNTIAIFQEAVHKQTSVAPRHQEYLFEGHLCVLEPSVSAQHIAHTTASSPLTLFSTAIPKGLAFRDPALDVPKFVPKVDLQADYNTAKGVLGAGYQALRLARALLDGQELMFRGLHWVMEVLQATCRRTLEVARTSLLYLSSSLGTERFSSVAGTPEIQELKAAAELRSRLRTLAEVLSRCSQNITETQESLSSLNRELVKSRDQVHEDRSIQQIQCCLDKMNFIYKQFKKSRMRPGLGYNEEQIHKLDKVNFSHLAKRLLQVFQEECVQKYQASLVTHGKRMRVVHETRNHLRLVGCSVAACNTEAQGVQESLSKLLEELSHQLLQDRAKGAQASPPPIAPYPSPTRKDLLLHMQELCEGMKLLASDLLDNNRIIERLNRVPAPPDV

Test [3] deals with T3, Serine/threonine-protein kinase TBK1 (Homo sapiens) (UniProt Q9UHD2).
T3 sequence (whole entry): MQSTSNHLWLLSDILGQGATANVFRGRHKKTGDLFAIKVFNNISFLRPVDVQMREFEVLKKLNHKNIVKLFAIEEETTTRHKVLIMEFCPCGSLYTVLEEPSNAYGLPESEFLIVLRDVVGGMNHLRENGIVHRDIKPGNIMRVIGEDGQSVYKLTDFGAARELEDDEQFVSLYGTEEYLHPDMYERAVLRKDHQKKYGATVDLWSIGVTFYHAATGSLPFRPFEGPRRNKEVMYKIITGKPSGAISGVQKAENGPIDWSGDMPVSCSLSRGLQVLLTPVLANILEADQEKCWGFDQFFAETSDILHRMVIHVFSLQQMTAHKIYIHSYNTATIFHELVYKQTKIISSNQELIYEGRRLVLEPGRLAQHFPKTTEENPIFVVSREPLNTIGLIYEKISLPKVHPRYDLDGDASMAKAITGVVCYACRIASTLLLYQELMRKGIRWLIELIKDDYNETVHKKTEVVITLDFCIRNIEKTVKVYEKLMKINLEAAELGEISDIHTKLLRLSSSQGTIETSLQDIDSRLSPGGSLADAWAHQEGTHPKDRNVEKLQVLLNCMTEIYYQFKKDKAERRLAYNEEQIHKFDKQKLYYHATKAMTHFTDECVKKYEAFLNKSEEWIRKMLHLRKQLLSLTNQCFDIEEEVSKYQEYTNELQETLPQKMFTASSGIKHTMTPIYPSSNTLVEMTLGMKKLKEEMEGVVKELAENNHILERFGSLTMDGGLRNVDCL

`Cc1cc(Cl)cc2c1NC(=O)C2=NNc1ccc(S(N)(=O)=O)cc1`: the inhibition in test [1] was 11%; in test [2] it was 4%; in test [3], 29% and 26%.

Consider `COc1cccc(-c2c[nH]c3c(N/N=C/c4ccncc4)ncnc23)c1`, for which the inhibition in test [1] is 2%; in test [2], 35% and 33%; in test [3], 74% and 76%.

Consider `NS(=O)(=O)c1ccc(-c2ccc3c(NC(=O)C4CC4)n[nH]c3c2)cc1`, for which the inhibition in test [1] was -1% and 2%; in test [2] it was 1% and -2%; in test [3], -3% and 0%.

Regarding `O=C(Nc1n[nH]c2cc(-c3ccccc3)ccc12)C1CC1`, the inhibition in test [1] was 9% and -2%; in test [2] it was -1%; in test [3] it was 2% and 0%.

`COc1ccc(-c2nn3ncccc3c2-c2ccnc(Nc3ccc4c(c3)OCCO4)n2)cc1`: the inhibition in test [1] is 1%; in test [2], 1%; in test [3], 1% and 0%.

`c1cnn2ncc(-c3ccnc(Nc4ccc5c(c4)OCCO5)n3)c2c1`: the inhibition in test [1] was 0% and -2%; in test [2], 23% and 21%; in test [3] it was 29% and 33%.

`Cc1ccc(C(=O)NC2CCCCC2)cc1-c1ccc(C(=O)NCC2CC2)cc1`: the inhibition in test [1] is 9% and 7%; in test [2], 0% and -1%; in test [3], -2% and -3%.

For the compound `CN1CCN(Cc2ccc(-c3cc4ncnc(Nc5ccc(OCc6cccc(F)c6)c(Cl)c5)c4s3)o2)CC1`, the inhibition in test [1] is 0% and -4%; in test [2], 6% and 5%; in test [3] it was 7% and 3%.

In the case of `Fc1ccc(-c2ncn(C3CCNCC3)c2-c2ccnc(Oc3ccc4c(c3)OCO4)n2)cc1`, the inhibition in test [1] is -2% and 0%; in test [2] it was -2% and 2%; in test [3] it was -3% and -5%.

As to `Cc1ccc(O)cc1Nc1ccnc2cc(-c3ccccn3)ccc12`, the inhibition is 6% and 4% in test [1]; 1% in test [2]; 2% and 1% in test [3].

Take `O=C1Nc2ccc(-c3cccnc3)cc2C1=Cc1cc(Br)c(O)c(Br)c1`: the inhibition is 16% and 2% in test [1]; 37% and 39% in test [2]; 40% and 43% in test [3].

As to `CS(=O)(=O)CCNCc1ccoc1-c1ccc2ncnc(Nc3ccc(OCc4ccccc4)cc3)c2c1`, the inhibition in test [1] was -2%; in test [2], 3%; in test [3], 5% and 2%.

For the compound `CNC(=O)c1cc(-c2ccc(F)cc2)cc(-c2ccc(S(=O)(=O)N3CCCC3)cc2)c1N`, the inhibition is -3% and -6% in test [1]; 0% and -1% in test [2]; 4% and 2% in test [3].

Turning to `OCCCNc1nccc(-c2c(-c3ccc(F)cc3)nn3cc(C(F)(F)F)ccc23)n1`, the inhibition in test [1] was 2%; in test [2], -3% and 0%; in test [3], -2% and -5%.

For the compound `NS(=O)(=O)c1ccc(N/N=C2\C(=O)Nc3ccc(Cl)cc32)cc1`, the inhibition in test [1] was 2%; in test [2], 2% and 1%; in test [3], 5% and 4%.

Turning to `COc1cc(Nc2ncc(-c3ccccc3)o2)cc(OC)c1`, the inhibition in test [1] is 1%; in test [2], 0% and -1%; in test [3] it was 0% and 3%.

As to `CN1CCC(n2cnc(-c3ccc(F)cc3)c2-c2ccnc(N)n2)CC1`, the inhibition in test [1] was 2%; in test [2] it was 4%; in test [3], 0% and 2%.

`COc1cc2ncn(-c3cc(OCc4ccccc4C(F)(F)F)c(C(C)=O)s3)c2cc1OC`: the inhibition in test [1] was 5% and 4%; in test [2] it was -4%; in test [3], -3% and -2%.

In the case of `COc1cc2c(cc1Nc1nc(Nc3ccsc3C(N)=O)c3cc[nH]c3n1)N(C(=O)CN(C)C)CCC2`, the inhibition in test [1] was 3% and 4%; in test [2], 7% and 6%; in test [3] it was 23% and 19%.

For the compound `COc1ccc(COc2ccc(Cc3cnc(N)nc3N)cc2OC)cc1`, the inhibition is 2% in test [1]; -4% and -2% in test [2]; -3% and -2% in test [3].

For the compound `[O-][S+]1CCN(Cc2ccc(-c3ccc4ncnc(Nc5ccc(OCc6cccc(F)c6)c(Cl)c5)c4c3)o2)CC1`, the inhibition in test [1] is 16% and 1%; in test [2], 1% and 2%; in test [3] it was 7% and 0%.

For the compound `CN(c1ccc(NC(=O)Nc2ccc(OC(F)(F)F)cc2)cc1)c1ccnc(Nc2cccc(S(N)(=O)=O)c2)n1`, the inhibition in test [1] was 2% and 3%; in test [2] it was 17% and 18%; in test [3], 18%.

As to `CNC(=O)c1cncc(/C=C/c2ccccc2Cl)c1`, the inhibition is 3% and 1% in test [1]; 0% in test [2]; 2% and 1% in test [3].

For `COc1cc2ncn(-c3cc(OCc4ccccc4C(F)(F)F)c(C(N)=O)s3)c2cc1OC`, the inhibition in test [1] was 2% and 0%; in test [2], 0% and 3%; in test [3], 12%.

With `CC(C)c1ccc(-c2cc(-c3c[nH]nc3-c3ccccn3)ccn2)cc1`, the inhibition was 1% and 0% in test [1]; -5% in test [2]; -5% and -7% in test [3].

As to `Cc1ccc(-c2cc3c(NC(=O)C4CC4)ncnc3o2)cc1`, the inhibition in test [1] is 0% and -1%; in test [2], -4% and -3%; in test [3], -2% and -3%.

As to `O=C1Nc2ccccc2/C1=C/Nc1ccc2[nH]c(=O)[nH]c2c1`, the inhibition in test [1] was 1%; in test [2] it was 22% and 20%; in test [3], 30% and 27%.

As to `Cn1cc(C=C2C(=O)Nc3cccnc32)c2ccccc21`, the inhibition is 15% in test [1]; 7% and 10% in test [2]; 17% and 18% in test [3].

`FC(F)(F)CNc1nccc(-c2cnn3ncccc23)n1`: the inhibition was 2% and 7% in test [1]; -2% and -1% in test [2]; -2% and -4% in test [3].

For the compound `CCc1cccc(NC(=O)Nc2ccc(Oc3ccc4nc(NC(=O)OC)[nH]c4c3)cc2)c1`, the inhibition was -10% in test [1]; -3% and -1% in test [2]; -3% and -1% in test [3].

As for `COC(=O)Nc1nc2cc(Oc3ccc(NC(=O)Nc4ccccc4)cc3)ccc2[nH]1`, the inhibition is -1% and -2% in test [1]; 2% and 1% in test [2]; 8% in test [3].

On to `CCN1CCC(CC(=O)Nc2n[nH]c3nnc(-c4cccc(F)c4F)cc23)CC1`, for which the inhibition in test [1] is 1% and 6%; in test [2] it was -1% and -3%; in test [3] it was 0%.

Consider `COc1cc2ncnc(Nc3ccc4c(cnn4Cc4ccccc4)c3)c2cc1OC`, for which the inhibition in test [1] is 2% and -2%; in test [2], 2%; in test [3], 5% and 2%.

Take `NS(=O)(=O)c1ccc(Nc2cc(-c3cccc(O)c3)n[nH]2)cc1`: the inhibition was -1% and 0% in test [1]; -2% and -3% in test [2]; -4% and -2% in test [3].

For `CN(C)CCNC(=O)Nc1ccc(N(C)c2ccnc(Nc3ccc(CS(C)(=O)=O)cc3)n2)cc1`, the inhibition in test [1] is 1%; in test [2], 1%; in test [3], -2% and -4%.

One may read the inhibition as the drop in the measured response relative to a control, in per cent.
